From patent US6603046B1, “Bis-aromatic a,β-unsaturated ketones” (Lica Pharmaceuticals A/S, priority 1992, dated 2003)
Where two headings read alike, the source gives them in different places.

How the values were obtained:
L. major promastigotes = L. major promastigotes from 4-days cultures, 3H-thymidine uptake (Examples 5, 14); format: cell-based, Leishmania major; conditions: for inhibition at 1 µg/mL / inhibition at 5 µg/mL / inhibition at 10 µg/mL / inhibition at 20 µg/mL / inhibition at 0.5 µg/mL: Leishmania major; for inhibition at 1 µg/mL: 1 μg/ml; for inhibition at 5 µg/mL: 5 μg/ml; for inhibition at 20 µg/mL: 20 μg/ml; for inhibition at 0.5 µg/mL: 0.5 μg/ml
Description: Parasite cultures. The same parasite culture as described in Example 4. Promastigotes were harvested on day 4 of the culture and used for the parasiticidal assay.
Effect on promastigotes. […] Following incubation, […] of ^3H-thymidine was added to each well and further incubated for 18 hrs. Promastigotes were then harvested on filter paper by means of a cell harvester (Skatron, Lierbyen, Norway), extensively washed with distilled water and counted in a scintillation counter (Minaxi Ti-Carb 4000, United Technologies, Packard, USA).
L. major promastigotes. The L. major promastigotes were prepared as described in Example 4 and harvested after 4 days.

human lymphocytes = experiment: Lymphocyte Proliferation Assay, 3H-thymidine incorporation (Example 13); conditions: for inhibition at 0.5 µg/mL / inhibition at 1 µg/mL / inhibition at 5 µg/mL / inhibition at 10 µg/mL: Homo sapiens, Lymphocyte
[1] = read-out: percentage inhibition of 3H-thymidine uptake (mean ± SEM), Table 5.1
[2] = read-out: percentage inhibition of 3H-thymidine uptake (mean ± SEM), Table 5.1, 10 μg/ml
[3] = Table 14.1, read-out: percentage inhibition of promastigotes (upper figure)
[4] = Table 14.1, 10 μg/ml, read-out: percentage inhibition of promastigotes (upper figure)
[5] = read-out: inhibition of lymphocytes (lower figure)

Compound | inhibition at 1 µg/mL (L. major promastigotes; [1]) | inhibition at 5 µg/mL (L. major promastigotes; [1]) | inhibition at 10 µg/mL (L. major promastigotes; [2]) | inhibition at 0.5 µg/mL (L. major promastigotes; [3]) | inhibition at 1 µg/mL (L. major promastigotes; [3]) | inhibition at 5 µg/mL (L. major promastigotes; [3]) | inhibition at 10 µg/mL (L. major promastigotes; [4]) | inhibition at 0.5 µg/mL (human lymphocytes; [5]) | inhibition at 1 µg/mL (human lymphocytes; [5]) | inhibition at 5 µg/mL (human lymphocytes; [5]) | inhibition at 10 µg/mL (human lymphocytes; [5]) | also measured
O=C(/C=C/c1ccccc1)c1ccccc1 [chalcone, reference compound] | – | – | – | – | – | – | – | – | – | – | – | activity against Leishmania parasites in vitro (L. major promastigotes): very high activity; toxicity against human lymphocytes (human lymphocytes): extremely high toxicity
O=C(/C=C/c1ccccc1)c1ccc(O)cc1 [drawing 53] | 35.9% | 70.8% | 82.8% | – | – | – | – | – | – | – | – | inhibition at 20 µg/mL (L. major promastigotes; [1]): 91.9 ± 2.1%
O=C(/C=C/c1ccc(O)cc1)c1ccccc1 [drawing 54] | 39.1% | 70.1% | 84.5% | – | – | – | – | – | – | – | – | inhibition at 20 µg/mL (L. major promastigotes; [1]): 94.3 ± 1.6%
COc1ccc(/C=C/C(=O)c2ccc(O)cc2)c(OC)c1 [drawing 55] | 27.3% | 61.8% | 91.9 ± 4.6% | – | – | – | – | – | – | – | – | inhibition at 0.5 µg/mL (L. major promastigotes; [1]): 19.4%
C=CCOc1ccc(C(=O)/C=C/c2ccc(OC)cc2OC)cc1 [drawing 56] | 17.5% | 64.5% | 84.3 ± 3.5% | – | – | – | – | – | – | – | – | inhibition at 0.5 µg/mL (L. major promastigotes; [1]): 7.5%
COCOc1ccc(C(=O)/C=C/c2ccc(OC)cc2OC)cc1 [drawing 58] | 18.1% | 56.3% | 65 ± 5.9% | – | – | – | – | – | – | – | – | inhibition at 0.5 µg/mL (L. major promastigotes; [1]): 8.5%
COc1cc(/C=C/C(=O)c2ccc(O)cc2O)ccc1O [drawing 59] | 14.3% | 66.7% | 83.3 ± 4.6% | – | – | – | – | – | – | – | – | inhibition at 0.5 µg/mL (L. major promastigotes; [1]): 7.8%
O=C(/C=C/c1ccccc1)c1ccccc1 [drawing 60] | – | – | – | 21.6% | 34.8% | 91.9% | 97.3% | 2% | 7.3% | 91% | 100% | –
O=C(/C=C/c1ccc(O)cc1)c1ccc(O)cc1 [drawing 63] | – | – | – | 22.5 ± 10% | 26.6 ± 7.6% | 34.6 ± 10.5% | – | 0% | 0% | 96.3% | – | inhibition at 10 µg/mL (L. major promastigotes; read-out: percentage inhibition of promastigotes (upper figure)): 53.1 ± 7.9%; inhibition at 10 µg/mL (human lymphocytes; read-out: inhibition of lymphocytes (lower figure), response to PHA, 10 μg/ml): 94.8%
COc1ccc(C(=O)/C=C/c2ccccc2)cc1 [drawing 66] | – | – | – | 20.6% | 26.3% | 68.1% | 85.5% | 2% | 7.5% | 91% | 100% | –
COc1cccc(/C=C/C(=O)c2ccc(O)cc2)c1OC [drawing 69] | – | – | – | 32% | 43% | 95.2 ± 4.7% | 97.1 ± 3.5% | 2% | 7.5% | 89.3% | 99.8% | –
COc1cc(/C=C/C(=O)c2ccc(O)cc2O)ccc1O [drawing 74] | – | – | – | 7.8% | 14.3% | 56.7% | 83.3% | 2% | 6% | 9.5% | 38.3% | –
COCOc1ccc(C(=O)/C=C/c2ccc(OC)cc2OC)cc1 [drawing 90] | – | – | – | 22.8 ± 9.7% | 27.6 ± 10.9% | 50.2 ± 13% | 65.4 ± 16.1% | 0% | 5.1% | 11.2% | 15.4% | –
COc1ccc(CCC(=O)c2ccc(O)cc2)c(OC)c1 [drawing 92] | – | – | – | 8.5 ± 1.8% | 5.6 ± 5.4% | 22.5 ± 9.7% | 31.3 ± 16% | 0% | 0% | 3% | 1.5% | –
CC(C)=CCc1c(O)ccc(C(=O)/C=C/c2cc(O)c3c(c2)C=CC(C)(C)O3)c1O [drawing 97] | – | – | – | – | – | – | 18% | – | – | – | – | –
CC(C)=CCc1cc(/C=C/C(=O)c2ccc(O)c(CC=C(C)C)c2O)ccc1O [drawing 98] | – | – | – | – | 12% | 28% | 91% | – | – | – | – | –
